In US7524964B2, “Tetrahydrothiopyrano pyrazole cannabinoid modulators” (Janssen Pharmaceutica NV, priority 2005, dated 2009) one finds inhibition and IC50 data, which are given here for 16 molecules.

Read-outs that look alike come from different tables or passages of the source.

The target in one test is T1, human CB-2 receptor (Homo sapiens, UniProt P34972).
T1 construct: expressed in transfected cells; host or cells: SK-N-MC cells, pcDNA3 CB-2 (human), semi-purified membranes
The test is described as follows: Binding assay, cannabinoid CB2 receptor ([3H]-CP-55,940 displacement). The following applies: read-out: CB2 binding percent inhibition; for inhibition at 1 µM: test concentration 1 μM (superscript b). In short, it runs like this: (§1)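 Displacement of 0.2 nM [3H]-CP-55,940 (non-specific: 10 uM WIN 55,212) was run on semi-purified membranes of transfected SK-N-MC cells carrying human CB-1 or CB-2, 90 min, 30° C, pH 7.5. Scintillation counting; IC50 by linear regression, else % inhibition at 0.2, 1 or 10 μM.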

The target of a further test is human CB1 receptor (Homo sapiens, UniProt P21554). The test is described as follows: Binding assay, cannabinoid CB1 receptor ([3H]-CP-55,940 displacement). Set-up: expressed in transfected cells; host or cells: SK-N-MC cells, pcDNA3 CB-1 (human), semi-purified membranes. The following applies: for inhibition at 0.2 µM: test concentration 0.2 μM (superscript a); for inhibition at 0.2 µM / inhibition at 1 µM: read-out: CB1 binding percent inhibition; for inhibition at 1 µM: test concentration 1 μM (superscript b). In outline:
as §1

Setting [1] is: test concentration 0.2 μM (superscript a).

T1 sequence (P34972 whole entry): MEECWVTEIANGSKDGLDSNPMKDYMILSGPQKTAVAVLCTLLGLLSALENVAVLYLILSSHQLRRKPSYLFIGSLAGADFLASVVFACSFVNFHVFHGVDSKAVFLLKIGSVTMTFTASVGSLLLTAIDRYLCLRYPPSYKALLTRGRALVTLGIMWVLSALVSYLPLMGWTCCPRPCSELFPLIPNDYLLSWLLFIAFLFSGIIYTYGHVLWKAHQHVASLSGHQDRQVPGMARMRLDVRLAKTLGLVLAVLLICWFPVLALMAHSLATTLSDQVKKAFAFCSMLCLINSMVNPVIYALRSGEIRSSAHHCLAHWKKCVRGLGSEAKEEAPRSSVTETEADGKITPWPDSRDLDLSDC
human CB1 receptor, sequence (P21554 whole entry): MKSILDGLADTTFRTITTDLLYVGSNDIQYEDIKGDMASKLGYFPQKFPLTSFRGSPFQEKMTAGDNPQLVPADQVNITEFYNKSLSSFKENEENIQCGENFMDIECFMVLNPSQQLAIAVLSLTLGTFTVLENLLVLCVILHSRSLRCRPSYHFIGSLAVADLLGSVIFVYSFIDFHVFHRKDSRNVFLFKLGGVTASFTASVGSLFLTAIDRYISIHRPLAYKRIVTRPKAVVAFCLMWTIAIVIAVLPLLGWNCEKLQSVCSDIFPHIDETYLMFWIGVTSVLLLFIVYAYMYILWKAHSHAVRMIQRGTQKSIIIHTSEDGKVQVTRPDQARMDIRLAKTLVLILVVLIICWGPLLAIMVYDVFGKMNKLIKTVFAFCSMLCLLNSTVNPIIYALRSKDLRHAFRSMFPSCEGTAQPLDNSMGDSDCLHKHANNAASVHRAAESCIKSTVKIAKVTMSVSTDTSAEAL

Consider `C[C@@H](NC(=O)c1nn(-c2ccc(Cl)cc2Cl)c2c1CS(=O)(=O)CC2)c1ccccc1` [Cpd 128, 1-(2,4-dichloro-phenyl)-5,5-dioxo-4,5,6,7-tetrahydro-1H-5λ^6-thiopyrano[4,3-c]pyrazole-3-carboxylic acid [(1R)-1-phenyl-ethyl]-amide], for which the inhibition (as a rule, how much of the control response was suppressed) at 0.2 µM at human CB-2 receptor (setting [1]) was found to be 10%; on human CB1 receptor, 5%.

For `C[C@@H](NC(=O)c1nn(-c2ccc(Cl)cc2Cl)c2c1CS(=O)(=O)C/C2=C\c1ccc(F)cc1)c1ccccn1` [Cpd 124, (7Z)-1-(2,4-dichloro-phenyl)-7-(4-fluoro-benzylidene)-5,5-dioxo-4,5,6,7-tetrahydro-1H-5λ^6-thiopyrano[4,3-c]pyrazole-3-carboxylic acid [(1R)-1-(pyridin-2-yl)-ethyl]-amide], at human CB-2 receptor (setting [1]), the inhibition at 0.2 µM came out at 12%. For the same molecule, on human CB1 receptor, the IC50 (as a rule, the concentration that inhibits the measured activity by half) was found to be 5 nM.

Turning to `C[C@@H](NC(=O)c1nn(-c2ccc(Cl)cc2Cl)c2c1CS(=O)(=O)C/C2=C\c1ccc(Cl)o1)c1ccccc1` [Cpd 117, (7Z)-7-(5-chloro-furan-2-ylmethylene)-1-(2,4-dichloro-phenyl)-5,5-dioxo-4,5,6,7-tetrahydro-1H-5λ^6-thiopyrano[4,3-c]pyrazole-3-carboxylic acid [(1R)-1-phenyl-ethyl]-amide], the inhibition at 0.2 µM on human CB-2 receptor was found to be 18%. This molecule displayed a half-maximal inhibitory concentration (IC50) at human CB1 receptor of 9 nM.

In the case of `CN1CCN(NC(=O)c2nn(-c3ccc(Cl)cc3Cl)c3c2CSC/C3=C\c2ccc(F)cc2)CC1` [Cpd 113, (7Z)-1-(2,4-dichloro-phenyl)-7-(4-fluoro-benzylidene)-1,4,6,7-tetrahydro-thiopyrano[4,3-c]pyrazole-3-carboxylic acid (4-methyl-piperazin-1-yl)-amide], the inhibition at 0.2 µM came to 0% on human CB-2 receptor (setting [1]) and 17% on human CB1 receptor.

With `CC1CCCC(C)N1NC(=O)c1nn(-c2ccc(Cl)cc2Cl)c2c1CSC/C2=C\c1ccc(F)cc1` (centres unmarked) [Cpd 111, (7Z)-1-(2,4-dichloro-phenyl)-7-(4-fluoro-benzylidene)-1,4,6,7-tetrahydro-thiopyrano[4,3-c]pyrazole-3-carboxylic acid (2,6-dimethyl-piperidin-1-yl)-amide], on human CB-2 receptor (setting [1]), the inhibition at 0.2 µM is 16%. This molecule also displayed a 50% inhibitory concentration (IC50) at human CB1 receptor of 14 nM.

As for `C[C@@H](NS(=O)(=O)/C=C/c1nn(-c2ccc(F)cc2F)c2c1CSCC2Cc1cccc(F)c1)C1CCCCC1` (stereo partly drawn) [Cpd 39, (E)-2-[1-(2,4-difluoro-phenyl)-7-(3-fluoro-benzyl)-1,4,6,7-tetrahydro-thiopyrano[4,3-c]pyrazol-3-yl]-ethenesulfonic acid [(1R)-1-cyclohexyl-ethyl]-amide], the inhibition at 0.2 µM at human CB-2 receptor (setting [1]) worked out at 37%; on human CB1 receptor it was 55%.

`C[C@H](NC(=O)c1c2c(nn1-c1ccc(Cl)cc1Cl)/C(=C/c1ccc(F)cc1)CSC2)c1ccccc1` [Cpd 91, (7Z)-2-(2,4-dichloro-phenyl)-7-(4-fluoro-benzylidene)-2,4,6,7-tetrahydro-thiopyrano[4,3-c]pyrazole-3-carboxylic acid [(1S)-1-phenyl-ethyl]-amide]: the inhibition at 0.2 µM at human CB-2 receptor (setting [1]) worked out at 14%; on human CB1 receptor it was 38%.

With `C[C@@H](NS(=O)(=O)/C=C/c1c2c(nn1Cc1ccccc1)CCS(=O)(=O)C2)C1CCCCC1` [Cpd 16, (E)-2-(2-benzyl-5,5-dioxo-4,5,6,7-tetrahydro-2H-5λ^6-thiopyrano[4,3-c]pyrazol-3-yl)-ethenesulfonic acid [(1R)-1-cyclohexyl-ethyl]-amide], the inhibition at 1 µM on human CB-2 receptor and at human CB1 receptor was 0% throughout.

With `C[C@H](NS(=O)(=O)/C=C/c1nn(Cc2ccccc2)c2c1CS(=O)(=O)CC2)C1CCCCC1` [Cpd 15, (E)-2-(1-benzyl-5,5-dioxo-4,5,6,7-tetrahydro-1H-5λ^6-thiopyrano[4,3-c]pyrazol-3-yl)-ethenesulfonic acid [(1S)-1-cyclohexyl-ethyl]-amide], the inhibition at 1 µM on human CB-2 receptor turned out to be 0%; at human CB1 receptor it was 4%.

For `O=S(=O)(/C=C/c1nn(-c2ccc(F)cc2F)c2c1CSCC2Cc1cccc(F)c1)NN1CCOCC1` (centres unmarked) [Cpd 41, (E)-2-[1-(2,4-difluoro-phenyl)-7-(3-fluoro-benzyl)-1,4,6,7-tetrahydro-thiopyrano[4,3-c]pyrazol-3-yl]-ethenesulfonic acid morpholin-4-ylamide], the figures for the inhibition at 0.2 µM on human CB-2 receptor (setting [1]) and on human CB1 receptor were 8% and 9%, respectively.

On to `O=C(N[C@@H]1c2ccccc2C[C@@H]1O)c1nn(-c2ccc(Cl)cc2Cl)c2c1CSC/C2=C\c1ccc(F)cc1` [Cpd 58, (7Z)-1-(2,4-dichloro-phenyl)-7-(4-fluoro-benzylidene)-1,4,6,7-tetrahydro-thiopyrano[4,3-c]pyrazole-3-carboxylic acid [(1R,2S)-2-hydroxy-indan-1-yl]-amide], for which the inhibition at 0.2 µM on human CB-2 receptor was determined as 25%. In addition, the 50% inhibitory concentration (IC50) at human CB1 receptor came out at 40 nM.

Regarding `O=C(NN1CCCCC1)c1nn(-c2ccc(Cl)cc2)c2c1C[S+]([O-])C/C2=C\c1ccc(F)cc1` (centres unmarked) [Cpd 96, (7Z)-1-(4-chloro-phenyl)-7-(4-fluoro-benzylidene)-5-oxo-4,5,6,7-tetrahydro-1H-5λ^4-thiopyrano[4,3-c]pyrazole-3-carboxylic acid piperidin-1-ylamide], the inhibition at 0.2 µM on human CB-2 receptor (setting [1]) turned out to be 9%; at human CB1 receptor, 43%.

Take `O=C(N[C@@H]1c2ccccc2C[C@@H]1O)c1nn(-c2ccc(Cl)cc2Cl)c2c1CS(=O)(=O)C/C2=C\c1ccc(F)cc1` [Cpd 69, (7Z)-1-(2,4-dichloro-phenyl)-7-(4-fluoro-benzylidene)-5,5-dioxo-4,5,6,7-tetrahydro-1H-5λ^6-thiopyrano[4,3-c]pyrazole-3-carboxylic acid [(1R,2S)-2-hydroxy-indan-1-yl]-amide]: the inhibition at 0.2 µM at human CB-2 receptor (setting [1]) was 10%. Also, the IC50 on human CB1 receptor is 23 nM.

For the molecule `CN(NC(=O)c1nn(-c2ccc(Cl)cc2)c2c1CS(=O)(=O)C/C2=C\c1ccc(F)cc1)c1ccccc1` [Cpd 100, (7Z)-1-(4-chloro-phenyl)-7-(4-fluoro-benzylidene)-5,5-dioxo-4,5,6,7-tetrahydro-1H-5λ^6-thiopyrano[4,3-c]pyrazole-3-carboxylic acid N′-methyl-N′-phenyl-hydrazide], on human CB-2 receptor, the inhibition at 0.2 µM was 9%. This molecule showed a half-inhibitory concentration (IC50) on human CB1 receptor of 25 nM.

Consider `O=C(NN1CC2CCCC2C1)c1c2c(nn1-c1ccc(Cl)cc1Cl)/C(=C/c1ccc(F)cc1)CSC2` (centres unmarked) [Cpd 92, (7Z)-2-(2,4-dichloro-phenyl)-7-(4-fluoro-benzylidene)-2,4,6,7-tetrahydro-thiopyrano[4,3-c]pyrazole-3-carboxylic acid (hexahydro-cyclopenta[c]pyrrol-2-yl)-amide], for which the inhibition at 0.2 µM is 8% at human CB-2 receptor (setting [1]) and 47% at human CB1 receptor.

For the molecule `C[C@H](NS(=O)(=O)/C=C/c1nn(-c2ccc(Cl)cc2Cl)c2c1CSCC2Cc1cccc(Cl)c1)c1ccccc1` (stereo partly drawn) [Cpd 46, (E)-2-[7-(3-chloro-benzyl)-1-(2,4-dichloro-phenyl)-1,4,6,7-tetrahydro-thiopyrano[4,3-c]pyrazol-3-yl]-ethenesulfonic acid [(1S)-1-phenyl-ethyl]-amide], the inhibition at 0.2 µM on human CB-2 receptor (setting [1]) worked out at 18%; on human CB1 receptor, 43%.
